Data as given in article PMC12051620, “Molecular basis underlying the specificity of an antagonist AA92593 for mammalian melanopsins” (The Journal of Biological Chemistry, 2025).

Target: T1, human melanopsin (Homo sapiens, UniProt Q9UHM6)
T1 sequence (Q9UHM6 1-384 limits assumed): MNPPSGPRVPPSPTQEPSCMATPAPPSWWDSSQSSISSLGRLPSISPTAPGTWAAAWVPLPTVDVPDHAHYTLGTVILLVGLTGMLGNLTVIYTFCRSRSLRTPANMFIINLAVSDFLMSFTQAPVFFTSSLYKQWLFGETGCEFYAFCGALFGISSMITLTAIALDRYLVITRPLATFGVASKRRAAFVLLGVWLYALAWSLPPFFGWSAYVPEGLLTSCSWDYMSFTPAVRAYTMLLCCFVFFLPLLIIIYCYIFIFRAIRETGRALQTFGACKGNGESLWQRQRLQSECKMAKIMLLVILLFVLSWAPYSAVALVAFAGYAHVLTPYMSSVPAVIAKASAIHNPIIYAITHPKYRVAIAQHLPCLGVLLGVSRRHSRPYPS
Assay: GsX GloSensor assay with exogenous Gsα WT
Format: cell-based
Design: the C-terminal amino acid residues (94, 140, 200, 214, 296, and 308 residues); expressed in transfected cells; host or cells: COS-1
Details: 16.7 μM AA92593; COS-1 cells
From the text: Previous studies of human and mouse melanopsins reported that these melanopsins can activate not only Gq but Gs and Gi ([20], [21], [22]). Thus, we assessed the effect of AA92593 on Gsα WT or Gsα/i11 (with 11 C-terminal sequence of Giα) using the GsX GloSensor assay. In agreement with the promiscuous G protein-coupling of melanopsins, we observed light-dependent increase of GloSensor luminescence in COS-1 cells expressing Gsα or Gsα/i11 with human/mouse melanopsins (Fig. 1, G–J).
For GloSensor assay, opsins, GloSensor assay sensor (coded by pGlo-22F), and NanoBiT-tagged G proteins were transiently expressed in COS-1 cells (kindly provided from Dr David Farrens, Oregon Health and Science University) using PEI as described previously ([24], [52]). […] For GFP-fluorescence microscopy, a 35-mm cell culture dish (IWAKI) was transfected with 2 μg melanopsin-GFP plasmid and 8 μg PEI in 400 μl Opti-mem and 1.2 ml D-MEM. […]
The transfected COS-1 cells were incubated at 37 °C, 5% CO2 for 2 days, and the medium was aspirated and exchanged with 50 μl of HBSS (145 mM NaCl, 10 mM D-glucose, 5 mM KCl, 1 mM MgCl2, 1.7 mM CaCl2, 1.5 mM NaHCO3, 10 mM Hepes, pH 7.4), containing 33.3, 20, 10, 2, 0.2, 0.02, 0.002, or 0 μM AA92593, 0.5% dimetyl sulfoxide (DMSO), and 4% (vol/vol) GloSensor cAMP reagent stock solution. […] Luminescence was measured using GM-2000 or GM-3510 microplate reader (Promega). […]

In the case of COc1ccc(S(=O)(=O)N2CCCCC2)cc1C [AA92593], the “effect on melanopsin-induced cAMP responses via exogenous Gsα” value is reported as “can suppress”.
